From ChEMBL document CHEMBL1122087, “Computer graphics in drug design: molecular modeling of thyroid hormone-prealbumin interactions” (J Med Chem, 1982)

These compounds were tested against Transthyretin (Homo sapiens) (UniProt P02766) (assay: Ability to displace L-[125I]thyoxine from the high affinity prealbumin binding site was expressed as ratio of its apparent association constant to that of DL-thyroxine).

Ka(T4)	Compound
28.7%	NC(Cc1cc(I)c(Oc2cc(Br)c(O)c3ccccc23)c(I)c1)C(=O)O (configuration not stated)
0.3%	NC(Cc1cc(I)c(Oc2ccc(O)cc2)c(I)c1)C(=O)O (configuration not stated)
8.6%	NC(Cc1cc(I)c(Oc2cc(Br)c(O)c(Br)c2)c(I)c1)C(=O)O (configuration not stated)
1.6%	NC(Cc1cc(I)c(Oc2ccc(O)c3ccccc23)c(I)c1)C(=O)O (configuration not stated)
1.6%	NC(Cc1cc(I)c(Oc2ccc(O)c(Br)c2)c(I)c1)C(=O)O (configuration not stated)
6.3%	NC(Cc1cc(I)c(Oc2cccc3c(O)cccc23)c(I)c1)C(=O)O (configuration not stated)

These compounds were tested against Transthyretin (Homo sapiens) (UniProt P02766) (assay: Ability to displace L-[125I]thyoxine from the high affinity prealbumin binding site was expressed as ratio of its apparent association constant to that of L-thyroxine).

Ka(T4)	Compound
0.7%	NC(Cc1cc(I)c(Oc2cccc3ccc(O)cc23)c(I)c1)C(=O)O (configuration not stated)
